The text below walks through data of PMC6332320, “Factors Influencing Oral Bioavailability of Thai Mango Seed Kernel Extract and Its Key Phenolic Principles” (Molecules, 2015).

SMILES strings stand for the structures. Like-named read-outs stand apart in the source and are kept apart here. Marks after values point to notes of the source that are not given here.

Data set [1] in a line: Chemical stability in HBSS at pH 5, 6, 7 and 8. The class given is physicochemical. The protocol:
The chemical stability of GA, MG, PGG and MSKE was determined in HBSS at pH 5, 6, 7 and 8. The test compounds were added to HBSS to obtain the final concentrations (2 and 20 μM) for each standard compound or MSKE (0.25 mg/mL), which is equivalent to concentrations of 26.70 ± 1.35 µM GA, 4.90 ± 0.38 µM MG and 27.09 ± 8.01 µM PGG. The solutions at pH 5, 7 and 8 were then incubated in a water bath at 37 °C for 4 h, whereas the solutions at pH 6 were incubated for 8 h. Samples (200 μL) were collected at different time intervals (0, 1, 2, 3 and 4 h or 0, 1, 2, 4, 6 and 8 h) and then vortexed and centrifuged at 15,500 rpm for 15 min. The supernatant was injected into the UPLC for analysis. All experiments were performed in triplicate.
(§1) The chemical and biological stabilities of the phenolic compounds were expressed as the concentration of the analyte at different time points relative to the concentration of the same analyte at time zero multiplied by 100 (% recovery).

Data set [2] in a line: in vitro. It is filed as in vitro ADME, rat. The conditions noted are these: Sprague-Dawley, pH 6, rat fecal lysates, 24 h; for recovery at 24 h, 100 µg/mL: as principle in MSKE 100 µg/mL, relative to HBSS, read-out: relative recovery after incubation with the fecal lysates. The protocol: (§2) The rat fecal lysate was prepared according to the method of Niu et al. with slight modifications. Briefly, 3 g of feces was collected from SD rats (8–10 weeks, n = 6) were then washed with ice-cold 0.1 mM potassium phosphate buffer (KPi, 10 mL). After resuspension in ice-cold 0.1 mM KPi (20 mL), the feces were vortexed and sonicated in an ice water bath for 45 min. To obtain the fecal lysate, the mixture was centrifuged at 15,000 rpm at 4 °C for 30 min. The supernatant was collected and maintained at –80 °C until use. The protein concentration in the fecal lysate was determined using a BCA™ protein assay kit.
(§3) The prepared fecal lysate was thawed and diluted with ice-cold HBSS at pH 6 to obtain a final concentration of 0.5 mg/mL protein for each test. […] The mixtures were then incubated in water bath at 37 °C for 24 h. After samples (200 μL) were collected at each specific time point (0, 1, 2, 8, and 24 h), the reaction was stopped by adding ice-cold methanol (50 μL). The samples were then vortexed and centrifuged at 15,500 rpm for 15 min, and the supernatant was injected into the UPLC for analysis.
as §1

Data set [3] concerns rat fecal lysates. The data set can be described thus: in vitro. It is filed as in vitro ADME. The conditions noted are these: for recovery after incubation with inactive fecal lysates and HBSS at pH 6 / recovery after incubation with fecal lysates: as principle in MSKE 100 µg/mL; for recovery after incubation with fecal lysates / stability in inactive rat fecal lysates or HBSS at pH 6: 24 h. The protocol:
as §2, §3, §1

Data set [4] is described as follows: Excretion in urine and feces after oral administration in rats. The class given is in vivo, Sprague-Dawley rats. The conditions noted are these: for dose excreted: Sprague-Dawley, rat, blood, urine and feces, oral, 0-24 h, read-out: % recovery (total mass recovery: blood + urine + feces / initial mass); for Total Mass in Feces (0−24 h) / Total Mass in Urine (0−24 h): p.o. How it is done: SD rats (five rats/group) were individually housed in stainless-steel metabolic cages, which allowed for the separation and collection of urine and feces. The rats were fasted overnight with ad libitum access to water prior to the day of the experiment. After a rat was anesthetized with isoflurane gas, the prepared suspension of test compound in an oral suspension vehicle was administered to the animals via oral gavage at a dose of 20 mg/kg for each compound in the mixture of MG and PGG or at 143 mg/kg MSKE, which is equivalent to approximate doses of 20 mg/kg PGG and 0.13 mg/kg MG. Subsequently, the rats’ tails were snipped near the tip to collect blood samples (approximately 50 µL), which were collected in heparinized tubes at 0, 0.50, 1, 2, 4, 6, 8 and 24 h. To investigate the excretion of phenolic compounds, urine and feces were collected between 0–24 h post-administration into tubes containing penicillin G (200 mg) and dry tubes, respectively, which were pre-weighted before use. After completing the pharmacokinetic study, the urine volume and dry feces weights were recorded, and all samples were stored at −80 °C until analysis.
The blood and urine samples were prepared according to our previously reported methods. The fecal samples were prepared by adding 30 mL methanol to the sample, and the mixture was then vortexed and sonicated for 30 min to obtain the fecal lysates, which were extracted via the same method.
The pharmacokinetic parameters of MG and PGG were calculated based on the non-compartmental method using WinNonlin 3.3 (Pharsight Corporation, Mountain View, CA, USA). The total mass of analytes was calculated according to the following equations (Equations (3)–(6)): The mass recovery (%) = (total mass in blood + total mass in urine + total mass in feces)/initial mass of analyte (3) Total mass in blood = C24h in blood × rat blood volume (70 mL/kg of body weight) (4) Total mass in urine = C0–24h in urine × volume of urine (0–24 h) (5) Total mass in feces = C0–24h in fecal lysate × volume of fecal lysate (30 mL) (6) where C24h in the blood is the concentration of analyte found in the blood sample at 24 h, and C0–24h in the urine and C0–24h in the fecal lysate are the concentrations of the analyte found in the urine and fecal samples, respectively, between 0 and 24 h.

Setting [5] is: as principle in MSKE 0.25 mg/mL, pH 5, 6 or 7, 4 h.
The mark [6] stands for this setting: as principle in MSKE 0.25 mg/mL, pH 6, 8 h.
Where [7] appears, read: as principle in MSKE 0.25 mg/mL, pH 8, 4 h.
Setting [8] is: individual compound 2 and 20 µM, pH 5 or 7, 4 h, 37 °C.
[9] abbreviates: MSKE 143 mg/kg (20 mg/kg PGG and 0.13 mg/kg MG).
The mark [10] stands for this setting: mixture of MG and PGG 20 mg/kg each.

With `COC(=O)c1cc(O)c(O)c(O)c1` [MG, methyl gallate], the “chemical stability in HBSS” value in data set [1] (setting [5]) was “increased recoveries”; in data set [1] (setting [6]) it was “dramatically increased recoveries”; in data set [1] (setting [7]), “slightly decreased recovery”; in data set [1] (setting [8]) it was “only stable at pH 7”. Moreover, the recovery at 24 h, 100 µg/mL in data set [2] (rat fecal lysate) came out at 54.7%. Besides, the recovery at 24 h, 10 µM in data set [2] (rat fecal lysate, mixture of GA, MG and PGG 10 µM each, read-out: recovery after incubation with the fecal lysates) is 55.4%. The “recovery after incubation with inactive fecal lysates and HBSS at pH 6” value in data set [3] is “increased recoveries”. For the same molecule, in data set [3] (rat fecal lysates), the “recovery after incubation with fecal lysates” value is on record as “increased recoveries”. The “stability in inactive rat fecal lysates or HBSS at pH 6” value in data set [3] (individual compound 10 µM) is given as “stable”. Also, the “time to complete degradation in fecal lysates” value in data set [3] (individual compound 10 µM, rat fecal lysates) was no more than 8 h. The “stability in inactive fecal lysates” value in data set [3] (mixture of GA, MG and PGG 10 µM each, PGG after 8 h) is given as “good stabilities”. Also, the dose excreted in data set [4] (setting [9]) is 73.4 ± 30%; in data set [4] (setting [10]), less than 2%. In addition, the “Total Mass in Feces (0−24 h)” value was 18.35 ± 10.14 ^b µg in data set [4] (setting [9]) and 3.25 ± 1.73 µg in data set [4] (setting [10]). Moreover, the figures for the “Total Mass in Urine (0−24 h)” value in data set [4] (setting [9]) and in data set [4] (setting [10]) were 9.81 ± 2.81 ^b µg and 100.36 ± 74.67 µg, respectively.
Take `O=C(O)c1cc(O)c(O)c(O)c1` [GA, Gallic acid]: the “chemical stability in HBSS” value is recorded as “stable” in data set [1] (setting [5]), “moderately increased recovery” in data set [1] (setting [6]), “decomposed” in data set [1] (setting [7]) and “only stable at pH 7” in data set [1] (setting [8]). Besides, the recovery at 24 h, 100 µg/mL in data set [2] is 167%. The “maximum GA concentration increase after hydrolysis of PGG” value in data set [3] (PGG 10 µM incubated with rat fecal lysates) was “approximately 4 fold”. Besides, in data set [3], the “recovery after incubation with inactive fecal lysates and HBSS at pH 6” value is given as “increased recoveries”. Further, the “recovery after incubation with fecal lysates” value in data set [3] (rat fecal lysates) was “increased recoveries”. Further, the “stability in inactive rat fecal lysates or HBSS at pH 6” value in data set [3] (individual compound 10 µM) is “not significantly different from the initial concentrations”. Moreover, the “Total Mass in Feces (0−24 h)” value in data set [4] (setting [9]) is listed as 39.47 ± 17.44 ^b µg; in data set [4] (setting [10]), 9.64 ± 1.91 µg. Moreover, the “Total Mass in Urine (0−24 h)” value is 54.54 ± 26.59 µg in data set [4] (setting [9]) and 42.95 ± 26.88 µg in data set [4] (setting [10]).
